Reference: patent US20020198379A1, “Active compound from a sponge” (Pharma Mar, s.a., priority 1993, published 2002)
Converted amounts (≈) assume the structure as drawn.

Tests used:
[1] = LD50 i.p. in mice; conditions: mouse, in vivo, ip
[2] = tested on: P-388; assay: in vitro antitumor activity, P-388 tumour cells; format: cell-based; conditions: Mus musculus, P388
[3] = tested on: human lung carcinoma A-549; assay: in vitro antitumor activity, A-549 tumour cells; format: cell-based; conditions: A549
Description: (§1) The antitumor activities of this compound have been determined “in vitro” in cell cultures of human lung carcinoma A-549 and human colon carcinoma HT-29. The procedure was carried out using the methodology described by Raymond J. Bergeron et al. Biochem. Bioph. Res. Comm. 1984, 121(3), 848-854 and by Alan C. Schroeder et al. J. Med. Chem. 1981, 24 1078-1083.
(§2) The compound is active against the following tumour cells at the inhibiting concentrations noted: […]

[4] = tested on: human colon carcinoma HT-29; assay: in vitro antitumor activity, HT-29 tumour cells; format: cell-based
Description: as §1, §2

[5] = tested on: KB; assay: in vitro antitumor activity, KB tumour cells; format: cell-based; conditions: Homo sapiens
[6] = tested on: S. aureus; assay: antibiotic disk assay, S. aureus; format: cell-based; conditions: 10 μg/disk
[7] = tested on: B. subtilis; assay: antibiotic disk assay, B. subtilis; format: cell-based; conditions: 10 μg/disk
[8] = tested on: Penicillium notatum; assay: antifungal disk assay, Penicillium notatum; format: cell-based; conditions: Penicillium chrysogenum, 50 μg/disk
[9] = tested on: mixed lymphocyte reaction (MLR); assay: mixed lymphocyte reaction (MLR); format: cell-based; conditions: read-out: IC
[10] = tested on: primary culture of murine lymphocytes; assay: cytotoxicity assay against primary culture of murine lymphocytes; format: cell-based; conditions: Mus musculus, Lymphocyte
[11] = pH stability; format: physicochemical
Description: Palau'amine was isolated from the sponge as follows. Extraction of the lyophilized sponge (600 g) with MeOH (6 L) and dissolution of the water soluble residue after evaporation yielded 900 ml of an aqueous extract. [The dust from the lyophilized sponge caused a powerful allergic reaction, which entailed severe shortness of breath for about four hours; the effect largely disappeared within 24 hours]. […] Repeated LH-20 chromatography (MeOH) of the 0.5 fraction, after desalting by dissolving in EtOH, furnished essentially pure palau'amine, presumably as the hydrochloride, (14 mg, 0.01% dry weight) as an optically active, off-white amorphous powder that decomposed prior to melting. Further purification of palau'amine could be effected by HPLC [YMC aqueous C18, H2O/MeCN (90:10), 0.1% TFA].

SMILES: NC[C@H]1[C@H]2CN3C(=O)c4cccn4[C@H]4N=C(N)NC43[C@H]2[C@@]2(N=C(N)N[C@@H]2O)[C@@H]1Cl (stereo partly drawn) [palau'amine]
- LD50 [1]: 13 mg/kg
- IC50 [2]: 0.1 µg/mL (≈ 0.238 µM)
- IC50 [3]: 0.2 µg/mL (≈ 0.476 µM)
- IC50 [4]: 2 µg/mL (≈ 4.76 µM)
- IC50 [5]: 10 µg/mL (≈ 23.8 µM)
- antibiotic activity [6]: antibiotic activity
- antibiotic activity [7]: antibiotic activity
- zone of inhibition at 50 µg/disc [8]: 24 mm
- IC50 [9]: < 0.018 µg/mL
- IC50 [10]: 1.5 µg/mL (≈ 3.57 µM)
- stability >pH 6.5 ([11]; >pH 6.5): decomposes rapidly
- stability in acid ([11]; in acid): quite stable
